System: SARS-CoV-2 Spike protein pseudotyped lentiviral particles
Assay: microbe, parasite or virus in culture
Assay type: cell-based
Conditions: Severe acute respiratory syndrome coronavirus 2, HEK293, read-out: half-maximal effective concentration (EC50), neutralization of SARS-CoV2 infection

## O=C1Nc2ccccc2/C1=C\c1ccc(-c2cc(C(F)(F)F)cc(C(F)(F)F)c2)o1 [CD04872SC, 3-({5-[3,5-di(trifluoromethyl)phenyl]-2-furyl}methylidene)indolin-2-one]
  EC50: 248 µM
